Experimental data published in patent publication US5004593A (Mayo Foundation for Medical Education and Research, priority 1989, dated 1991).
Entries after “also recorded” stand apart in the source; their conditions may differ. Counter-ions that a name gives are not always drawn.

Columns and labels:
[1] = man; cited from earlier work
[2] = i.v., dogs, one specific HMM hydrochloride preparation; cited from earlier work
[3] = oral administration, man; cited from earlier work
[4] = HMM concentration in formulation before and after filtration (% theoretical) and precipitation; assay type: physicochemical; conditions: for % Theoretical HMM Concentration, After Filter: 0.45μ filter
Description: (§1) Unit dose amounts of drug, Intralipid 10%®, and diluents were changed as dose levels of HMM increased throughout the study. At doses which will be relevant for Phase II evaluation of the parenteral formulation, the following drug preparation scheme was employed. The Mayo Comprehensive Cancer Center Pharmacy weighed 500 mg portions of bulk HMM into sterile vials. HMM was dissolved in 0.1 N hydrochloric acid (sterile HCl for parenteral administration, USP) by adding 27.50 ml of the 0.1 N HCl to each 500 mg vial. The concentration of this solution was 18.2 mg HMM.HCl/ml. The volume of the HMM.HCl solution to be drawn up for each patient was determined by dividing the patient dose level by 18.2 (e.g., for a 750 mg dose, 750 mg divided by 18.2 mg/ml =41.2 ml of the HMM.HCl solution withdrawn from the vial). A 0.22 micron filter assembly was fitted to the syringe containing the appropriate HMM.HCl solution. The volume was filtered into a 500 ml empty sterile and sealed vial. Thus, the correct patient dose was placed in the evacuated vial. An equal volume of air was withdrawn from the sealed vial to maintain vacuum.
The amount of Intralipid 10%® to be added was determined by dividing the dose by 5.1 (e.g. 750 divided by 5.1=147 ml). The appropriate volume of Intralipid 10%® was added to the 500 ml vial containing the HMM.HCl solution. Finally, the volume of sodium bicarbonate (sodium bicarbonate for parenteral injection, USP, 1 mEq/ml) was determined by the formula of 0.1 ml sodium bicarbonate for every 20 mg of HMM to be administered (e.g., 750 mg divided by 20=37.5×0.1 ml =3.75 ml sodium bicarbonate). This provided approximately a 4 mg/ml solution of HMM-Intralipid 10%®. A vented tubing set was added to the bottle with the patient's dose. A particulate filter (4.5 micron) was attached to an 18 gauge needle and the filter and needle were placed on the tubing to fill the 500 ml empty bag. The drug was administered at a rate of 2 ml/min or 8 mg/min. Thus, infusion time was lengthened as dose levels increased maintaining a constant rate of drug administration. Fifty (50) ml of normal saline was infused following completion of the HMM infusion.
Details of drug preparation are described in the Methods section while a summary of the formulation procedure is shown in Table 1, below.
This modification of the initial formulation reported in Cancer Treat. Rep., 66, 1579 (1982) to first dissolve the HMM in aqueous HCl, eliminated the use of a toxic organic solvent (ethanol or dimethylacetamide) while ensuring complete and uniform mixing of drug with Intralipid 10%®. Assessment of the formulated product was determined at each step of the procedure by measuring HMM concentrations before and after filtration through 0.45 micron filters (Intralipid 10%® average particle size is approximately 0.40 micron). […] HMM concentrations following filtration of such mixtures yielded <5% of the theoretical HMM concentration.

[5] = clinical; cited from earlier work
[6] = tested on: refractory tumors; experiment: Phase I clinical trial, tumor response to intravenous HMM; assay type: in vivo, human (cancer patients); conditions: i.v.
Description: Eighteen patients were treated on the one day every four weeks schedule and 28 patients were treated on the daily ×5 four weeks schedule. Tumors included lung, colorectal, gastric, breast, ovarian, renal, bladder, parotide, hepatic, small bowel, thyroid, fibrosarcoma and fibroblastic osteosarcoma. Forty-five of 47 patients had received prior chemotherapy and/or radiotherapy. All patients had histologic or cytologic confirmation of unresectable cancer for which there was no conventional means of therapy that offered reasonable hope of cure or of significant palliation. All patients were ambulatory and in a reasonable state of nutrition. Patients were required to have WBC count ≥4,000/mm^2, platelet count ≥130,000 m^2, hemoglobin ≥10 g/dl, serum creatinine ≤1.5 mg/dl, ECOG performance status <3, fasting serum triglycerides ≤500 mg/dl. […]
Tests done prior to entry into study included a history, physical examination and tumor measurement whenever possible, WBC count, hemoglobin, platelet count, chest x-ray, electrocardiogram, electroencephalogram, urine analysis, triglycerides, SGOT, and serum creatinine. […] Triglycerides were determined before and after each HMM treatment. […]

[7] = oral administration, rabbits; due to extensive first-pass metabolism rather than poor absorption; cited from earlier work
[8] = Phase I clinical trial, toxicity of intravenous HMM; assay type: in vivo, human (cancer patients)
Description: (§2) Eighteen patients were treated on the one day every four weeks schedule and 28 patients were treated on the daily ×5 four weeks schedule. Tumors included lung, colorectal, gastric, breast, ovarian, renal, bladder, parotide, hepatic, small bowel, thyroid, fibrosarcoma and fibroblastic osteosarcoma. Forty-five of 47 patients had received prior chemotherapy and/or radiotherapy. All patients had histologic or cytologic confirmation of unresectable cancer for which there was no conventional means of therapy that offered reasonable hope of cure or of significant palliation. All patients were ambulatory and in a reasonable state of nutrition. Patients were required to have WBC count ≥4,000/mm^2, platelet count ≥130,000 m^2, hemoglobin ≥10 g/dl, serum creatinine ≤1.5 mg/dl, ECOG performance status <3, fasting serum triglycerides ≤500 mg/dl. Patients were excluded if they presented with uncontrolled infections, persistent (daily) nausea and/or vomiting, significant chronic obstructive pulmonary disease, any neurologic impairment, major surgery within the proceeding 30 days, radiation to >15% of the bone marrow within 30 days or radiation to total area >30% of bone marrow at any time.
(§3) Tests done prior to entry into study included a history, physical examination and tumor measurement whenever possible, WBC count, hemoglobin, platelet count, chest x-ray, electrocardiogram, electroencephalogram, urine analysis, triglycerides, SGOT, and serum creatinine. Between courses of treatment, the hematology group was checked twice weekly and the hemoglobin, SGOT and serum creatinine once weekly. Triglycerides were determined before and after each HMM treatment. Patients were entered in groups of three at each dose level. New patients were entered at a higher dose level only after the three patients treated at the previous level had been observed for a minimum of three weeks, counting from the last day of treatment. Patients not having significant toxicity at a given dose level were retreated at the next higher dose level but a minimum of three patients who never received HMM were entered at each escalation on each schedule. Dose levels on the daily ×5 schedule were […]. Dose increments for the one-day schedule were 360, 540, 675, 750, 844, and 1,000 mg/m^2.
as §1
(§4) The amount of Intralipid 10%® to be added was determined by dividing the dose by 5.1 (e.g. 750 divided by 5.1=147 ml). The appropriate volume of Intralipid 10%® was added to the 500 ml vial containing the HMM.HCl solution. […]

[9] = cited from earlier work
[10] = Phase I plasma and urine pharmacokinetics of intravenous HMM in Intralipid 10% (GC assay); assay type: in vivo, human (cancer patients)
Description: as §2, §3, §1, §4

[11] = tested on: ovarian adenocarcinoma, metastatic small cell carcinoma of the lung, metastatic breast cancer and refractory lymphoma; conditions: single agent clinical trials; cited from earlier work
[12] = after NaHCO3 (1 mEq/ml) 0.1 ml:5 ml, ca. 4 mg/ml
[13] = dissolved in 0.1 N HCl, ca. 20 mg/ml
[14] = i.v., one-day or daily ×5 schedules
[15] = 540 mg/m^2 i.v., three-compartment open model

CN(C)c1nc(N(C)C)nc(N(C)C)n1 [HMM hydrochloride]
local irritation and phlebitis [1]: severe local irritation and phlebitis
tolerability, intravenous [2]: well-tolerated

CN(C)c1nc(N(C)C)nc(N(C)C)n1 [HMM, 2,4,6-tris(dimethylamino)-1,3,5-triazine]
plasma concentrations of parent drug [3]: Low and variable plasma concentrations of parent drug
% Theoretical HMM Concentration, After Filter ([4]; after Intralipid 10% added 4 ml:1 ml, ca. 4 mg/ml): 100%
% Theoretical HMM Concentration, Before Filter [4, 12]: 100%
% Theoretical HMM Concentration, After Filter [4, 12]: 100%
% Theoretical HMM Concentration, Before Filter [4, 13]: 100%
% Theoretical HMM Concentration, After Filter [4, 13]: 100%
HMM concentration in the final filtered product, % of theoretical ([4]; final product, 0.45 micron filter): 90-95%
delayed toxicity [5]: moderate anemia, thrombocytopenia, leukopenia, and a peripheral neuropathy
main acute adverse effects [5]: Nausea and vomiting
peripheral neuropathy, symptoms [5]: parethesias, hypesthesias, motor weakness, and other sensory alterations
tumor responses [6]: No objective responses; also recorded: no tumor responses were observed
bioavailability [7]: poor bioavailability
white blood cell counts ([8]; all patients): ≥ 3,000 /μl
maximally tolerated dose ([8]; daily ×5 schedule, i.v.): ~630 mg/m^2 /day
maximum-tolerated doses ([8]; five days in a row every four weeks): 500-600 mg/m^2 /day
myelosuppression ([8]; i.v.): minimal myelosuppression
peripheral neuropathy compared with oral administration ([8]; i.v. aqueous fat emulsion vs same amount orally): reduced from the level observed when the same amount of HMM is administered orally
CNS toxicity, peripheral neuropathy [8, 14]: no CNS toxicity, specifically peripheral neuropathy, was noted in any patients
dose-limiting toxicity [8, 14]: nausea and vomiting
platelet nadir below 100,000/μl (one patient) ([8]; one-day administration of 540 mg/m^2): 75,000 /μl
hematologic toxicities ([8]; one-day or five-day regimen): no significant hematologic toxicities
maximally tolerated dose ([8]; one-day schedule, i.v.): approximately 850 mg/m^2
solubility in water and nontoxic solvents [9]: very limited solubility in water and nontoxic solvents
steady state volume of distribution [10, 15]: 460 1/m^2
steady state volume of distribution (Vdss) [10, 15]: 460 l/m^2
terminal half-life [10, 15]: 10.4 h
total body clearance (ClTB) [10, 15]: 0.75 1/min/m^2
accumulation during five-day treatment ([10]; 945 mg/m^2, daily ×5): disproportionate accumulation
observed vs predicted (simulated) 24 hour trough plasma concentrations ([10]; 945 mg/m^2, daily ×5): significantly greater than predicted
accumulation during five-day treatment ([10]; 945 mg/m^2, daily ×5, listed as hexamethylmelamine): possible saturation of parent drug elimination
observed vs predicted (simulated) 24 hour trough plasma concentrations ([10]; 506 and 632 mg/m^2, daily ×5): in agreement with predicted values
Twenty-four hour urinary recoveries of parent drug ([10]; 24 h, all patients): less than one
HMM 24 hours following each dose ([10]; daily ×5 schedule, plasma): detected
change of 24 hour drug concentration over days ([10]; daily ×5 schedule, plasma): increased each day
Cmax ([10]; human, iv, 540 mg/m^2 one-day schedule, five patients, plasma, read-out: Peak concentrations of HMM at the end of infusion): 2550 to 9350 ng/mL
half-life ([10]; human, plasma, iv, 540 mg/m^2 i.v., three-compartment open model, read-out: terminal half-life (converted)): 10.4 h
dose excreted at 24 h ([10]; human, urine, iv, 24 h, read-out: 24 hour urinary recovery of parent drug): < 1%
plasma levels / plasma AUC compared with oral administration ([10]; i.v. vs oral): Substantially higher plasma AUC values
consistency of plasma concentrations compared with oral ([10]; i.v. vs oral (D'Incalci)): more consistent plasma concentrations
demethylated urinary metabolites ([10]; urine): Demethylated urinary metabolites including penta-, tetra-, tri-, and di-methylmelamines were detected in urine
active against cancers [11]: active against a number of cancers including ovarian adenocarcinoma, metastatic small cell carcinoma of the lung, metastatic breast cancer and refractory lymphoma
